Measurements published in patent US9284297B2, “Halofuginone analogs for inhibition of tRNA synthetases and uses thereof” (President and Fellows of Harvard College, priority 2008, dated 2016).

Tests used:
[1] = test system: TGFβ-induced Smad phosphorylation and lymphocyte responses to TGFβ; assay: TGFβ signaling in T and B cells; assay type: cell-based, murine; details: low dose HF; 10 μM SB-431542
Method: FIG. 10. […] FIG. 10A is a set of FACS analyses of CD4^+ CD25^− T cells activated in Th1 or Th2 polarizing conditions, either in the presence or absence of TGFβ. DMSO, 10 nM HF, 10 nM MAZ1310, or 10 μM SB-431542 added as indicated at the time of activation. Intracellular cytokine staining was performed on expanded T cells on day 5.
FIG. 10D depicts western blot analyses of purified CD4^+ CD25^− T cells treated with DMSO, 40 nM MAZ1310, titrating concentrations of HF (2.5-40 nM) or 10 μM SB-431542 for 30 minutes in complete medium supplemented with 0.1% fetal calf serum. T cells were then activated in the presence or absence of 3 ng/ml TGFβ. Whole cell extracts were prepared after 1 hour of stimulation and western blot analyses were performed using the indicated antibodies.
Th17 differentiation is synergistically regulated by TGFβ and the pro-inflammatory cytokines IL-6 and IL-21. […] Since STAT3 is the major transducer of IL-6 and IL-21 signaling, the kinetics of STAT3 phosphorylation in HF-treated T cells were examined.
Whole cell lysates were generated from T cells activated for the indicated times. For STAT3 and Smad2/3 western blots cells were harvested, washed in PBS and lysed in 50 mM Tris, pH 7.4, 0.1% SDS, 1% Triton-X100, 140 mM NaCl, 1 mM EDTA, 1 mM EGTA supplemented with protease inhibitors tablets (Roche, Germany), 1 mM NaF and 1 mM Na3VO4. […]

[2] = molecular target: T1, methionyl tRNA synthetase (Oryctolagus cuniculus, UniProt G1SSX5); assay: Incorporation of 35S-labeled methionine into tRNA in rabbit reticulocyte lysate; assay type: biochemical; details: crude in vitro translation system
T1 construct: from tissue; host or cells: rabbit reticulocyte lysate
T1 sequence (G1SSX5 1-900): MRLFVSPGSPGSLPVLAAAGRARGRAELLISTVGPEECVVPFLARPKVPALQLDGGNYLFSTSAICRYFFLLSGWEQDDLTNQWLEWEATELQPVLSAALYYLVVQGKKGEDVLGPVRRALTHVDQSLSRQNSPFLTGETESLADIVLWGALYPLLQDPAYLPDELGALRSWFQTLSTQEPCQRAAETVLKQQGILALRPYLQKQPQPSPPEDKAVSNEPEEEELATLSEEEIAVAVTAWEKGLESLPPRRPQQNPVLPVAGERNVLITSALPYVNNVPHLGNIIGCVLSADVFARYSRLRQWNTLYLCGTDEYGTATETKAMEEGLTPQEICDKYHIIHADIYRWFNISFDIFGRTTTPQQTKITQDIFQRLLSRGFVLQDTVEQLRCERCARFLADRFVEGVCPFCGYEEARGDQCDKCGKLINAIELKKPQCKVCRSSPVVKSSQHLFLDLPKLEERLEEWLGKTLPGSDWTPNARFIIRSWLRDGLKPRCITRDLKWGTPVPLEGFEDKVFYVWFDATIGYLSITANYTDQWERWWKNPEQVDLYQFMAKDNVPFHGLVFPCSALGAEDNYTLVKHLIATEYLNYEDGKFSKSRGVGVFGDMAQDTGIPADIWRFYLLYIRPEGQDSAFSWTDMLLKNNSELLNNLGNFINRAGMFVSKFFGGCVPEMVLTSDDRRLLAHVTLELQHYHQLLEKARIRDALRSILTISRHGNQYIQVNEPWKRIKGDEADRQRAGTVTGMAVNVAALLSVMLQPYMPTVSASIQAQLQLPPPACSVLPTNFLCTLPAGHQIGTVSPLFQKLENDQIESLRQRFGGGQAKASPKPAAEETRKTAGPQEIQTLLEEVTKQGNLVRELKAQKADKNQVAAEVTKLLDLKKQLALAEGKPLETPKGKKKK
Method: Total RNA was extracted with acidic phenol-chloroform and tRNA was isolated using miRVANA microRNA isolation kit. Radioisotope incorporation into tRNA was measured in a scintillation counter.

[3] = test system: TGFβ-induced Smad phosphorylation and lymphocyte responses to TGFβ; details: cited from earlier work
[4] = test system: SV-MES mesangial cells (GCN2 Thr898, eIF2alpha Ser51 phosphorylation); assay: AAR activation in cultured fibroblastic cells, western blot; assay type: cell-based; details: 20 nM; 2 hours
From the text: Duplicate cell samples are shown. […] Activated GCN2 phosphorylates eif2alpha at Ser 51, therefore this is an expected downstream outcome of AAR activation.

Which “effect on TGFβ-induced Smad phosphorylation and other lymphocyte responses to TGFβ” value [1] does the source give for O=C(CC1NCCCC1O)Cn1cnc2cc(Br)c(Cl)cc2c1=O (stereo not shown) [Compound 1, 7-bromo-6-chloro-3-[3-(3-hydroxy-2-piperidinyl)-2-oxopropyl]-4(3H)-quinazolinone] here?
Its value is “inhibited neither TGFβ-induced Smad phosphorylation nor a variety of other lymphocyte responses to TGFβ”.

What about the “inhibition of 35S methionine incorporation into tRNA” value [2] of the same molecule?
Its value is “not a different tRNA synthetase (methionyl tRNA synthetase)”.

What about the “concentrations attenuating TGFβ signaling” value [3] of the same molecule?
The value was > 50 nM.

And the “AAR activation (GCN2 Thr898 and eIF2alpha Ser51 phosphorylation)” value [4]?
Its value is “activates the AAR”.
